Consider eleven compounds from ChEMBL document CHEMBL5532711, “Peniapyrones A-I, Cytotoxic Tricyclic-Fused α-Pyrone Derivatives from an Endophytic Penicillium brefeldianum F4a” (J Nat Prod, 2024).

What all share (type): functional, cell-based
One assay deals with ASPC1. The assay is described as follows: Cytotoxicity against human ASPC1 cells harboring KRAS G12D mutant assessed as inhibition of cell growth.
The test system of another assay is SNU-449. The assay is described as follows: Cytotoxicity against human SNU-449 cells assessed as inhibition of cell growth.
A further assay deals with MCF7. The assay is described as follows: Cytotoxicity against human MCF7 cells assessed as inhibition of cell growth.

Structures are written as SMILES. Bounds are passed on as bounds.

In the case of `Cc1cc2c(c(=O)o1)[C@@]1(C)C=CC(=O)[C@H]1[C@@H](OC[C@H]1C(=O)CC[C@@H]1C)O2`, the IC50 in the assay with ASPC1 is 9.4 µM; in the assay on SNU-449, 1.2 µM; in the assay with MCF7, 0.8 µM.

For the compound `Cc1cc2c(c(=O)o1)[C@]1(C)C=CC(=O)[C@@H]1[C@H](OC[C@H]1C(=O)CC[C@@H]1C)O2`, the IC50 in the assay with ASPC1, in the assay with SNU-449 and in the assay on MCF7 was greater than 10 µM throughout.

For `CO[C@@H]1Oc2cc(C)oc(=O)c2[C@]2(C)C=CC(=O)[C@H]12`, the IC50 in the assay with ASPC1, in the assay on SNU-449 and with MCF7 was greater than 10 µM in each case.

In the case of `C=C1[C@@H](O)C[C@H]2Oc3cc(C)oc(=O)c3[C@@]12C`, the results for the IC50 with ASPC1, in the assay on SNU-449 and with MCF7 were 1.7 µM, 2.7 µM and 0.2 µM, respectively.

Turning to `CCO[C@@H]1Oc2cc(C)oc(=O)c2[C@]2(C)C=CC(=O)[C@H]12`, the IC50 turned out to be 2.2 µM in the assay on ASPC1, 1.4 µM with SNU-449 and 0.7 µM in the assay with MCF7.

`Cc1cc2c(c(=O)o1)[C@@]1(C)C[C@H](O)C[C@H]1O2`: the results for the IC50 in the assay on ASPC1, in the assay on SNU-449 and in the assay on MCF7 were 1.5 µM, greater than 10 µM and 4.6 µM, respectively.

As to `Cc1cc2c(c(=O)o1)[C@]1(C)C=CC(=O)[C@@H]1[C@H](O)O2`, the IC50 in the assay with ASPC1 worked out at 1.7 µM; in the assay on SNU-449, 5.9 µM; in the assay on MCF7, 5.3 µM.

As to `Cc1cc2c(c(=O)o1)[C@@]1(C)[C@H](CO)[C@@H](O)C[C@H]1O2`, the IC50 in the assay with ASPC1 is greater than 10 µM; in the assay with SNU-449 it was 8.8 µM; with MCF7, 5.5 µM.

Regarding `Cc1cc2c(c(=O)o1)[C@@]1(C)CC(=O)C[C@H]1O2` (racemic), the IC50 was 2.9 µM with ASPC1, greater than 10 µM in the assay with SNU-449 and 9.9 µM in the assay on MCF7.

On to `Cc1nc(Nc2ncc(C(=O)Nc3c(C)cccc3Cl)s2)cc(N2CCN(CCO)CC2)n1` [DASATINIB ANHYDROUS], for which the values for the 50% inhibitory concentration (IC50) in the assay on ASPC1 and with MCF7 were 3.3 µM and greater than 10 µM, respectively.

In the case of `Nc1ccn([C@@H]2O[C@H](CO)[C@@H](O)C2(F)F)c(=O)n1` [GEMCITABINE], the IC50 in the assay with ASPC1 is 0.5 µM; in the assay on SNU-449, greater than 10 µM.

Broadly, the IC50 is the midpoint of a concentration-inhibition curve.
